In one data set the target is T1, ERG-DNA complex (Homo sapiens, UniProt P11308).
T1 construct: VCaP (endogenous overexpression); endogenous in cells; host or cells: VCaP (whole cells for A2 and A17; nuclear extract for A16)
T1 sequence (P11308 33-479 limits assumed): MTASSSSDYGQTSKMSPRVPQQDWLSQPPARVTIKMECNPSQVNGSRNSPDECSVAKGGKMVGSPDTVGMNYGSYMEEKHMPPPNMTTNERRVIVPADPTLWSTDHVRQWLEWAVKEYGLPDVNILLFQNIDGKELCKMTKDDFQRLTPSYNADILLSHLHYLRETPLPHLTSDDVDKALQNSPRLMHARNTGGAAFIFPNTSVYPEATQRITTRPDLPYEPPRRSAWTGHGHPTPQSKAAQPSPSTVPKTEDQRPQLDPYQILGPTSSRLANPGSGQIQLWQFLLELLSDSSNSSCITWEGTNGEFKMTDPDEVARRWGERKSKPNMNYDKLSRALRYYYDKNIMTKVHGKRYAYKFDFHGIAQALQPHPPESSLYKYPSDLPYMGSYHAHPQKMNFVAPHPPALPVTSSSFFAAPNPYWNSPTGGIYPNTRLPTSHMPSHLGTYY
The data set is described as follows: EMSA with VCaP nuclear lysate. It counts as binding. The conditions noted are these: 55 ng/μl nuclear extract, 4 μM to 8 mM. The method, then:
For experiments involving ERG from VCaP cells, VCaP nuclear protein was extracted using CelLytic NuCLEAR Extraction Kit (Sigma). […] For subsequent assays, 55 ng/μl of the nuclear extract was mixed with 1 nM of fluorophore-labeled dsDNA, titrated with VPC-18005 (diluted from a DMSO stock) and analyzed by the same EMSA protocol.
In general terms: In EMSA bound probe runs differently from free probe, usually more slowly.

Data set [1] is described as follows: Murine pharmacodynamics and toxicology studies. The data set is classed as in vivo, mice. The method, then:
Supplementary Figure 10: (A) In a preliminary study to evaluate in vivo toxicity and establish working oral (PO) doses, Nu/nu mice (n = 4) received a single PO dose of VPC-18005 (100 mg/kg or 500 mg/kg) dissolved in cyclodextrin. Blood was collected directly after injection and at the times indicated. Serum concentration of VPC-18005 was determined for each time point. (B) In a 4 week “repeated dose” study, body weight was measured daily for mice (n = 4) that received a daily dose of VPC-18005 (150 mg/kg BID) dissolved 50% ethanol (PO) or 50% ethanol (Vehicle). Change in weight of each animal was normalized to starting pretreatment weight. (C) Cytotoxicity serum markers of vehicle and VPC-18005 treated animals described in B) were determined and presented as average (Avg. Conc.) and standard deviation (SD) with corresponding paired t-test p values. LC-MS analysis of serum indicators of major organ toxicity (albumin (ALB), alkaline phosphatase (ALP) and alanine aminotransferase (ALT) as indicators of liver dysfunction, amylase (AMY) to test for acute pancreatitis, total bilirubin (TBIL) to assess jaundice, and blood urea nitrogen (BUN) to assess kidney function from endpoint samples

Data set [2] deals with RWPE-ERG cells. The data set is described as follows: Real time cell migration (xCELLigence), RWPE-ERG. It counts as cell-based. The conditions noted are these: 5 µM; compared to MOCK control. The method, then: Cell migration was monitored using CIM-16 migration plates via the xCELLigence platform (ACEA). FBS-supplemented media (160 μL) was added to the lower chamber of the plate and incubated at RT for 30 min. The upper chamber was then mounted and 30 μL of serum free media (SFM) was added to each well and left to equilibrate in the incubator for 1 h at 37°C. After the incubation, a background reading was taken for each well. […] Real time readings of cell index values were recorded initially every 5 min until the end of the experiment (48 hr). page 8: Supplementary Figure 4: VPC-18005 suppresses migration, but not growth of RWPE-1-ERG cells. (A) Cell viability (MTS) of ERG-expressing cells (RWPE-ERG) (closed circle) and non-ERG expressing cells (RWPE-MOCK (open square)) after treatment […] Impact on viability is presented as the mean ± SEM […] (B) RWPE-1-Mock or (C) […] The normalized cell index is a measure of the migration of the cells through the pores of the upper chamber and is used as the migration index. Dotted lines represent 1 standard deviation (SD) of the mean migration rate.

The target of the next data set is T2, ERG (Homo sapiens, UniProt P11308).
T2 construct: VCaP (endogenous overexpression); endogenous in cells; host or cells: VCaP (whole cells for A2 and A17; nuclear extract for A16)
T2 sequence (P11308 33-479 limits assumed): T1 sequence (P11308 33-479 limits assumed)
The data set is described as follows: ERG protein stability, Western blot after cycloheximide. The data set is classed as cell-based. The conditions noted are these: VCaP cells. The method, then: Cells were lysed on ice with RIPA buffer containing a protease inhibitor cocktail (Pierce). Primary antibodies: ERG (1:1,000, EPR3864(2), Abcam), α-Tubulin (1:20,000, Millipore), Vinculin (1:1,000, Abcam). Immunoreactivity was detected with the use of the goat anti-rabbit or rabbit anti-mouse horseradish peroxidase (HPR)–conjugated secondary antibody (1:10,000) (Santa Cruz), and visualization was achieved by chemiluminescence (Pierce). To inhibit protein synthesis, 10 μM cycloheximide was added for 1 h and then replaced with treatment medium for indicated time frame.
A general note: A western blot detects proteins with antibodies after separation by electrophoresis.

The subject of data set [3] is RWPE-ERG cells. Put plainly: MTS cell viability assay, RWPE-ERG. The data set is classed as cell-based. The conditions noted are these: increasing concentrations (0.2 to 25 μM), 72 h. As to the method: Twenty four hours later, 100 μL of medium containing vehicle control or compounds. Each treatment was prepared in triplicate. After a 72 h treatment, cellular viability was assessed using CellTiter 96 ® Aqueous One Solution Cell Proliferation Assay reagent (Promega) according to the manufacturer's instructions. Values were normalized to the DMSO control. page 8: Supplementary Figure 4: VPC-18005 suppresses migration, but not growth of RWPE-1-ERG cells. (A) Cell viability (MTS) of ERG-expressing cells (RWPE-ERG) (closed circle) and non-ERG expressing cells (RWPE-MOCK (open square)) after treatment […] Impact on viability is presented as the mean ± SEM […] (B) RWPE-1-Mock or (C) […] The normalized cell index is a measure of the migration of the cells through the pores of the upper chamber and is used as the migration index. Dotted lines represent 1 standard deviation (SD) of the mean migration rate.

For the next data set, the system named is PC3 cells. The arrangement: method as in PMID 21559405. The following applies: read-out: IC50 for cytotoxicity in PC3 cells; cited from earlier work.

As for `CC(C)c1ccc(C=N/N=C2\NC(=O)[C@@H](CC(=O)O)S2)cc1` (stereo in doubt) [VPC-18005, 2-((Z)-2-(((Z)-4-isopropylbenzylidene)hydrazono)-4-oxothiazolidin-5-yl)acetic acid], the “Disruption of ERG-DNA complex formation, VCaP nuclear lysate” value at ERG-DNA complex is listed as “disrupted ERG-DNA complex formation”. The “Solubility, stability and oral bioavailability in mice” value in data set [1] (Nu/nu mice, PO) is “soluble, stable and orally bioavailable”. The “Serum indicators of major organ toxicity (ALB, ALP, ALT, AMY, TBIL, BUN)” value in data set [1] (mice, 150 mg/kg BID, 4 weeks, endpoint samples) is “no significant impact”. The “General toxicity, repeated dose” value in data set [1] (mice, 4 week BID at 150 mg/kg PO) was “does not exhibit general toxicity”. Besides, the “General toxicity, single dose” value in data set [1] (mice, single doses of up to 500 mg/kg PO) is given as “does not exhibit general toxicity”. In addition, the “Effect on RWPE-ERG cell migration” value with RWPE-ERG cells [2] was “moderate effect”. At ERG (cycloheximide pre-treatment, up to 50 μM for 4 h), the “ERG protein degradation, 4 h” value is recorded as “did not induce ERG degradation”. Further, the “ERG protein degradation, 24 and 48 h” value on ERG (cycloheximide, 24 and 48 h) was “no observable ERG protein degradation”. Moreover, in the data set on RWPE-ERG cells [3], the “Effect on cell viability (MTS), RWPE cells overexpressing ERG” value is on record as “No effect on cell viability”.

Broadly, the IC50 is the concentration needed to halve the response being measured. For `COc1ccc(C(=O)CC2(O)C(=O)Nc3c(Cl)ccc(Cl)c32)cc1` (stereo not shown) [YK-4-279, reference compound], the IC50 with PC3 cells was greater than 100 µM.

(Values after article PMC5522078, “Discovery and characterization of small molecules targeting the DNA-binding ETS domain of ERG in prostate cancer” (Oncotarget, 2017).)
